Measurements as given in patent US4260745A, “3-Halo cephalosporins” (Eli Lilly and Company, priority 1979, dated 1981).
In brackets after ≈: the same amount, converted by molar mass. Where two headings read alike, the source gives them in different places.

Experiments:
Assay type in all cases: cell-based
Klebsiella pneumoniae [1] = experiment: standard disc-plate method, zone of inhibition; conditions: Table I, read-out: Zone of Inhibition (diameter in mm)
Text: (§1) The in vitro antimicrobial activity of the 3-halo cephalosporins is illustrated by the data in the following tables. Table I contains the antimicrobial activity for 7-[2-(2-thienyl)acetamido]-3-chloro-3-cephem-4-carboxylic acid obtained in the standard Disc-plate method. The numerical values are the diameter in millimeters of the zones of inhibition observed with the named organisms.
(§2) In Table IV below, the in vitro antimicrobial activity of 7-[2-(2-thienyl)acetamido]-3-bromo-3-cephem-4-carboxylic acid is presented for several illustrative microorganisms. The data presented were obtained in the standard disc-plate method with the numerical values recording the diameter in millimeters of the zones of inhibition observed with the named microorganisms.

Escherichia coli [2] = experiment: standard disc-plate method, zone of inhibition; conditions: Table I, read-out: Zone of Inhibition (diameter in mm)
Text: as §1, §2

Staphylococcus aureus = experiment: standard disc-plate method, zone of inhibition; conditions: Table I, read-out: Zone of Inhibition (diameter in mm)
Text: as §1, §2

Bacillus subtilis = experiment: standard disc-plate method, zone of inhibition; conditions: Table I, read-out: Zone of Inhibition (diameter in mm)
Text: as §1, §2

Mycobacterium avium = experiment: standard disc-plate method, zone of inhibition; conditions: 1.0 mg/ml, Table I, read-out: Zone of Inhibition (diameter in mm)
Text: as §1, §2

Sarcina lutea = experiment: standard disc-plate method, zone of inhibition; conditions: Micrococcus luteus, Table I, read-out: Zone of Inhibition (diameter in mm)
Text: as §1, §2

Proteus vulgaris = experiment: standard disc-plate method, zone of inhibition; conditions: 1.0 mg/ml, Table I, read-out: Zone of Inhibition (diameter in mm)
Text: as §1, §2

Salmonella gallinarum = experiment: standard disc-plate method, zone of inhibition; conditions: Salmonella enterica, GALLINARUM, Table I, read-out: Zone of Inhibition (diameter in mm)
Text: as §1, §2

[3] = system: Pseudomonas solanacearcum; experiment: standard disc-plate method, zone of inhibition; conditions: Pseudomonas, Table I, read-out: Zone of Inhibition (diameter in mm)
Text: as §1, §2

[4] = system: Penicillin Resistant Staphylococcus; experiment: Gradient Plate technique, MIC; conditions: read-out: Minimum Inhibitory Concentration
Text: The following Table II lists the minimum inhibitory concentration (MIC) for 7-[2-(2-thienyl)acetamido]-3-chloro-3-cephem-4-carboxylic acid against penicillin resistant Staphylococcus both in the presence of and absence of serum. The MIC values were obtained by the Gradient Plate technique carried out essentially as described by Bryson and Szybalski, Science, 116, 45 (1952). […]

Klebsiella pneumoniae [5] = experiment: Gradient Plate technique, MIC; conditions: read-out: Minimum Inhibitory Concentration
Text: (§3) The following Table II lists the minimum inhibitory concentration (MIC) for 7-[2-(2-thienyl)acetamido]-3-chloro-3-cephem-4-carboxylic acid against penicillin resistant Staphylococcus both in the presence of and absence of serum. The MIC values were obtained by the Gradient Plate technique carried out essentially as described by Bryson and Szybalski, Science, 116, 45 (1952).
(§4) In Table III, below, the MIC values for the test compound of Tables I and II against representative gram-negative organisms is presented. The data were obtained by the Gradient Plate technique.
(§5) The minimum inhibitory concentrations for 7-[2-(2-thienyl)acetamido]-3-bromo-3-cephem-4-carboxylic acid against representative gram-negative bacteria is presented in Table VI. The data were obtained by the Gradient Plate Method.
(§6) Tables VII and VIII list the minimum inhibitory concentrations of the test compound effective against representative penicillin resistant Staphylococcus strains, while […] the MIC values obtained against representative gram-negative microorganisms. The data were obtained by the Gradient Plate method.

Escherichia coli [6] = experiment: Gradient Plate technique, MIC; conditions: read-out: Minimum Inhibitory Concentration
Text: as §3, §4, §5, §6

Aerobacter aerogenes = experiment: Gradient Plate technique, MIC; conditions: Klebsiella aerogenes, read-out: Minimum Inhibitory Concentration
Text: as §3, §4, §5, §6

Shigella sp. = experiment: Gradient Plate technique, MIC; conditions: read-out: Minimum Inhibitory Concentration
Text: as §3, §4, §5, §6

Serratia marcescens = experiment: Gradient Plate technique, MIC; conditions: read-out: Minimum Inhibitory Concentration
Text: as §3, §4, §5, §6

Pseudomonas aeruginosa = experiment: Gradient Plate technique, MIC; conditions: read-out: Minimum Inhibitory Concentration
Text: as §3, §4, §5, §6

Salmonella heidelberg = experiment: Gradient Plate technique, MIC; conditions: Salmonella enterica, read-out: Minimum Inhibitory Concentration
Text: as §3, §4, §5, §6

[7] = system: Methicillin resistant Staphylococcus; experiment: Gradient Plate technique, MIC; conditions: Clinical Isolate X400 (methicillin resistant)
Escherichia coli [8] = experiment: standard disc-plate method, zone of inhibition; set-up: key: H: hazy zone of inhibition; Tr: trace zone of inhibition; conditions: 0.01 mg/ml; Table I
Text: as §1, §2

bioautogram = experiment: bioautogram
Description: To 110 ml. of methanol and 83 mg. of pre-reduced 5 percent palladium on carbon were added 83 mg. of p-nitrobenzyl 7-[2-(2-thienyl)acetamido]-3-fluoro-3-cephem-4-carboxylate. The mixture was hydrogenated at 53 psig. for one hour. The resulting mixture was filtered, the filtered catalyst was washed with methanol, and the methanol washings were added to the filtrate. The filtrate was then evaporated in vacuo. The residue was dissolved in ethyl acetate, and the ethyl acetate solution was extracted with dilute aqueous sodium bicarbonate. The sodium bicarbonate solution was washed with ethyl acetate, layered with ethyl acetate, and dilute aqueous HCl was added.

O=C(Cc1cccs1)NC1C(=O)N2C(C(=O)O)=C(Cl)CS[C@H]12 (stereo partly drawn) [7-[2-(2-Thienyl)acetamido]-3-chloro-3-cephem-4-carboxylic acid]
zone of inhibition at 10 µg/mL (Klebsiella pneumoniae [1]; 0.01 mg/ml): 13 mm | zone of inhibition at 100 µg/mL (Klebsiella pneumoniae [1]; 0.1 mg/ml): 27 mm | zone of inhibition at 1000 µg/mL (Klebsiella pneumoniae [1]; 1.0 mg/ml): 36 mm | zone of inhibition at 100 µg/mL (Escherichia coli [2]; 0.1 mg/ml): 19 mm | zone of inhibition at 1000 µg/mL (Escherichia coli [2]; 1.0 mg/ml): 24 mm | zone of inhibition at 10 µg/mL (Staphylococcus aureus; 0.01 mg/ml): 20 mm | zone of inhibition at 100 µg/mL (Staphylococcus aureus; 0.1 mg/ml): 29 mm | zone of inhibition at 1000 µg/mL (Staphylococcus aureus; 1.0 mg/ml): 31 mm | zone of inhibition at 10 µg/mL (Bacillus subtilis; 0.01 mg/ml): 24 mm | zone of inhibition at 100 µg/mL (Bacillus subtilis; 0.1 mg/ml): 40 mm | zone of inhibition at 1000 µg/mL (Bacillus subtilis; 1.0 mg/ml): 48 mm | zone of inhibition at 1000 µg/mL (Mycobacterium avium): 14 mm | zone of inhibition at 10 µg/mL (Sarcina lutea; 0.01 mg/ml): 21 mm | zone of inhibition at 100 µg/mL (Sarcina lutea; 0.1 mg/ml): 28 mm | zone of inhibition at 1000 µg/mL (Sarcina lutea; 1.0 mg/ml): 37 mm | zone of inhibition at 1000 µg/mL (Proteus vulgaris): 17 mm | zone of inhibition at 100 µg/mL (Salmonella gallinarum; 0.1 mg/ml): 22 mm | zone of inhibition at 1000 µg/mL (Salmonella gallinarum; 1.0 mg/ml): 32 mm | zone of inhibition at 100 µg/mL ([3]; 0.1 mg/ml): 21 mm | zone of inhibition at 1000 µg/mL ([3]; 1.0 mg/ml): 28 mm | MIC ([4]; Clinical Isolate V 32, No Serum): 8.4 µg/mL (≈ 23.4 µM) | MIC ([4]; Clinical Isolate V 32, Serum): > 20 µg/mL | MIC ([4]; Clinical Isolate V 41, No Serum): 5 µg/mL (≈ 13.9 µM) | MIC ([4]; Clinical Isolate V 41, Serum): 7 µg/mL (≈ 19.5 µM) | MIC ([4]; Clinical Isolate V 84, No Serum): 0.8 µg/mL (≈ 2.23 µM) | MIC ([4]; Clinical Isolate V 84, Serum): 1 µg/mL (≈ 2.79 µM) | MIC ([4]; Clinical Isolate X 1.1, No Serum): 0.2 µg/mL (≈ 0.557 µM) | MIC ([4]; Clinical Isolate X 1.1, Serum): < 0.1 µg/mL | MIC (Klebsiella pneumoniae [5]): 0.6 µg/mL (≈ 1.67 µM) | MIC (Escherichia coli [6]): 18.5 µg/mL (≈ 51.6 µM) | MIC (Aerobacter aerogenes): 0.8 µg/mL (≈ 2.23 µM) | MIC (Shigella sp.): 25 µg/mL (≈ 69.7 µM) | MIC (Serratia marcescens): > 200 µg/mL | MIC (Pseudomonas aeruginosa): > 200 µg/mL | MIC (Salmonella heidelberg): 0.8 µg/mL (≈ 2.23 µM) | Minimum Inhibitory Concentration ([7]; Serum): > 20 µg/mL | MIC ([7]; Staphylococcus, No Serum, read-out: Minimum Inhibitory Concentration): > 20 µg/mL | Zone of Inhibition (diameter in mm) (Escherichia coli [8]): Tr

O=C(Cc1cccs1)NC1C(=O)N2C(C(=O)O)=C(F)CS[C@H]12 (stereo partly drawn) [7-[2-(2-Thienyl)acetamido]-3-fluoro-3-cephem-4-carboxylic acid]
biological activity by bioautogram (bioautogram): biologically active
